According to patent US20100286092A1, “BETA-LACTAMASE INHIBITORS” (priority 2007, published 2010):

Tests used:
[1] = system: K. pneumoniae expressing the Class A carbapenemase KPC-2; conditions: in the presence of a fixed amount (8 μg/mL) of Ceftazidime; CAMHB, 16-20 hours at 37° C.
Description: (§1) To determine the ability of test compounds to potentiate the inhibition of the growth of bacterial strains producing beta-lactamase enzymes, classic cell based screening assays were employed. Four bacteria strains producing beta-lactamase enzymes were used: K. pneumoniae expressing the Class A Extended Spectrum Beta-Lactamase (ESBL) CTX-M-15, E. coli expressing the Class A ESBL SHV-5, E. cloacae expressing the Class C P99+, and K. pneumoniae expressing the Class A carbapenemase KPC-2. In order to evaluate the ability of test compounds to inhibit beta-lactamase activity, Applicants used a modification of the broth microdilution assay. The assay was conducted in Cation Adjusted Mueller Hinton Broth (CAMHB, BD #212322, BD Diagnostic Systems, Sparks, Md.). Bacteria strains were grown for 3-5 hours in CAMBH broth. All four strains were grown in presence of 50 μg/mL ampicillin to ensure resistance is maintained. In the meantime, test compounds were diluted in DMSO to a 0.1 mg/mL stock. The compounds were added to a microtiter plate and were diluted in 2-fold serial dilutions in CAMHB in a final concentration range of 8 μg/mL to 0.015 μg/ml. An overlay of CAMHB containing a cephalosporin was added to the compounds at a final static concentration of 8 μg/ml. […] Each of these compound plates are made in quadruplicate, one for each bacteria strain. In addition to the titration of test compounds the MICs of a panel of cephalosporins is also tested to ensure the strains are behaving consistently from test to test. Once the test compound and cephalosporin are added the plates can be inoculated. Inocula are conducted according to CLSI broth microdilution method. After inoculation the plates are incubated for 16-20 hours at 37° C. then the Minimal Inhibitory Concentration (MIC) of the test compound is determined visually.
(§2) Using the methodology described above, examples of the current invention were evaluated for their ability to inhibit the growth of β-lactamase producing bacteria in the presence of a β-lactam antibiotic. […] NT=Not Tested.

[2] = system: K. pneumoniae expressing the Class A Extended Spectrum Beta-Lactamase (ESBL) CTX-M-15; assay type: cell-based; conditions: in the presence of a fixed amount (8 μg/mL) of Ceftazidime; CAMHB, 16-20 hours at 37° C.
Description: as §1, §2

Row | Structure (SMILES) | MIC of example compound, K. pneumoniae KPC-2 + 8 μg/mL CAZ [1] | MIC of example compound, K. pneumoniae CTX-M-15 + 8 μg/mL CAZ [2]
1 | O=C(Cc1cccc(O)c1)N[C@@H](Cc1cccc(C(=O)O)c1O)B(O)O [Example 3, (1R)-1-(3-hydroxy-phenyl)acetylamino-1-(3-carboxy-2-hydroxy)benzyl-methyl boronic acid] | C (C represents an MIC of <1 μg/mL) | C (C represents an MIC of <1 μg/mL)
2 | CC(=O)N[C@@H](Cc1cccc(C(=O)O)c1O)B(O)O [Example 6, (1R)-1-(2-acetylamino)-2-(2-hydroxy-3-carboxyphenyl)ethyl-1-boronic acid] | C (C represents an MIC of <1 μg/mL) | C (C represents an MIC of <1 μg/mL)
3 | NC(=O)COc1cccc(CC(=O)N[C@@H](Cc2cccc(C(=O)O)c2O)B(O)O)c1 [Example 8, (1R)-1-[(3-carbamoylmethoxy)-phenyl]-acetylamino-(3-carboxy-2-hydroxy)benzyl-methylboronic acid] | C (C represents an MIC of <1 μg/mL) | C (C represents an MIC of <1 μg/mL)
4 | N[C@H](C(=O)N[C@@H](Cc1cccc(C(=O)O)c1O)B(O)O)c1ccccc1.O=CO [Example 12, (1R,2′S)-1-(2-amino-2-phenylacetylamino)-2-(2-hydroxy-3-carboxyphenyl)ethyl-1-boronic acid formate salt] | C (C represents an MIC of <1 μg/mL) | C (C represents an MIC of <1 μg/mL)
5 | O=C(Cc1cc(O)ccc1O)N[C@@H](Cc1cccc(C(=O)O)c1O)B(O)O [Example 18, (1R)-1-(2-(2,5-dihydroxyphenyl)acetylamino)-2-(2-hydroxy-3-carboxyphenyl)ethyl-1-boronic acid] | – | C (C represents an MIC of <1 μg/mL)
6 | O=C(COCc1ccccc1)N[C@@H](Cc1cccc(C(=O)O)c1O)B(O)O [Example 22, (1R)-1-(2-benzyloxyacetylamino)-2-(2-hydroxy-3-carboxyphenyl)ethyl-1-boronic acid] | C (C represents an MIC of <1 μg/mL) | C (C represents an MIC of <1 μg/mL)
7 | O=C(O)c1cccc(C[C@H](NC(=O)c2cccc3ccccc23)B(O)O)c1O [Example 27, (1R)-1-(1-naphthoylamino)-2-(2-hydroxy-3-carboxyphenyl)ethyl-1-boronic acid] | C (C represents an MIC of <1 μg/mL) | –
8 | Cc1ccccc1C(=O)N[C@@H](Cc1cccc(C(=O)O)c1O)B(O)O [Example 30, (1R)-1-(2-methylbenzoylamino)-2-(2-hydroxy-3-carboxyphenyl)ethyl-1-boronic acid] | C (C represents an MIC of <1 μg/mL) | –
9 | O=C(N[C@@H](Cc1cccc(C(=O)O)c1O)B(O)O)c1ccc(Cl)cc1 [Example 32, (1R)-1-(4-Chloro-benzoyl)-amino-1-(3-carboxy-2-hydroxy)benzyl-methylboronic acid] | C (C represents an MIC of <1 μg/mL) | –
10 | COc1ccc(C(=O)N[C@@H](Cc2cccc(C(=O)O)c2O)B(O)O)cc1 [Example 33, (1R)-1-(4-Methoxybenzoyl)-amino-1-(3-carboxy-2-hydroxy)benzyl-methylboronic acid] | C (C represents an MIC of <1 μg/mL) | –
11 | O=C(N[C@@H](Cc1cccc(C(=O)O)c1O)B(O)O)c1ccccc1O [Example 35, (1R)-1-(2-hydroxybenzoylamino)-2-(2-hydroxy-3-carboxyphenyl)ethyl-1-boronic acid] | C (C represents an MIC of <1 μg/mL) | –
12 | O=C(CN1C(=O)c2ccccc2C1=O)N[C@@H](Cc1cccc(C(=O)O)c1O)B(O)O [Example 45, (1R)-1-(2-(1,3-dioxoisoindolin-2-yl)acetylamino)-2-(2-hydroxy-3-carboxyphenyl)ethyl-1-boronic acid] | C (C represents an MIC of <1 μg/mL) | –
